Converted amounts (≈) assume the structure as drawn. Where two headings read alike, the source gives them in different places. Values belong to the compound of their own block, whether it stands above or below them.
Legend:
Test in all cases: MIC (Minimum Inhibitory Concentration)
Format in all cases: cell-based
Candida albicans = tested on: Candida albicans
Text: (§1) In addition they may be used for combatting plant diseases, in particular as fungicides. A list of MIC (Minimum Inhibitory Concentration) values for a number of microorganisms is listed herebelow. The figures in the column headings refer to the compounds prepared according to the experimental examples in comparison with the spectrum of 1-[2-(2,4-dichlorophenyl)-2-{(2,4-dichlorophenyl)-methoxy} -ethyl7-1H-imidazole (better known under the name of miconazole, c.f. Merck Index 9th Ed. page 6047) or natamycin (pimaricin, c.f. Merck Index 9th Ed. page 7233).

[1] = tested on: Trichophyton mentagrophytus
Text: as §1

[2] = tested on: Trichophyton schoenleinii; conditions: read-out: MIC values
Text: as §1

Trichophyton rubrum = tested on: Trichophyton rubrum
Text: as §1

Trichophyton tonsurans = conditions: read-out: MIC values
Text: as §1

[3] = tested on: Streptococcus haemolyticus; conditions: read-out: MIC values
Text: as §1

Trichophyton equinum = tested on: Trichophyton equinum
Text: as §1

Trichophyton quickeaneum = conditions: read-out: MIC values
Text: as §1

Trichophyton verrucosum = tested on: Trichophyton verrucosum
Text: as §1

Pasteurella multocida = conditions: read-out: MIC values
Text: as §1

Trichophyton violoceum = conditions: read-out: MIC values
Text: as §1

[4] = read-out: MIC values, Candida albicans A 7
[5] = read-out: MIC values, Candida albicans A 3140
[6] = read-out: MIC values, Candida albicans A 3141
[7] = read-out: MIC values, Candida albicans A 3142
[8] = read-out: MIC values, Candida albicans A 3143
[9] = read-out: MIC values, Candida albicans A 3144
[10] = read-out: MIC values, Candida albicans A 3145
[11] = read-out: MIC values, Candida albicans A 3165
[12] = read-out: MIC values, Candida albicans A 3166
[13] = read-out: MIC values, Candida albicans A 3167
[14] = read-out: MIC values, Candida albicans A 3168
[15] = read-out: MIC values, Candida albicans A 3169
[16] = read-out: MIC values, Candida albicans A 3171
[17] = read-out: MIC values, Candida albicans A 3184
[18] = read-out: MIC values, Candida albicans A 3190
[19] = read-out: MIC values, Candida albicans A 3191
[20] = read-out: MIC values, Candida albicans A 3192
[21] = read-out: MIC values, Candida albicans A 3194
[22] = read-out: MIC values, Candida albicans A 3196
[23] = read-out: MIC values, Trichophyton mentagrophytus 367-68
[24] = read-out: MIC values, Trichophyton mentagrophytus 421-67
[25] = read-out: MIC values, Trichophyton mentagrophytus A 3252
[26] = read-out: MIC values, Trichophyton mentagrophytus R 177
[27] = read-out: MIC values, Trichophyton mentagrophytus R 178
[28] = read-out: MIC values, Trichophyton rubrum 218-65
[29] = read-out: MIC values, Trichophyton rubrum 494-62
[30] = read-out: MIC values, Trichophyton rubrum A 810
[31] = read-out: MIC values, Trichophyton equinum 182-76
[32] = read-out: MIC values, Trichophyton equinum 441-51
[33] = read-out: MIC values, Trichophyton verrucosum 134-66
[34] = read-out: MIC values, Trichophyton verrucosum A 2922

Structure (SMILES): [C-]#[N+]C(=C1CCOCC1)S(=O)(=O)c1ccc(C)cc1 [Example 14a, a-(tetrahydropyran-4-ylidene)-a-(4-toluenesulphonyl)-methyl-isocyanide]
- MIC (Candida albicans; [4]): 12.5 µg/mL (≈ 45.1 µM)
- MIC (Candida albicans; [5]): 12.5 µg/mL (≈ 45.1 µM)
- MIC (Candida albicans; [6]): 12.5 µg/mL (≈ 45.1 µM)
- MIC (Candida albicans; [7]): 12.5 µg/mL (≈ 45.1 µM)
- MIC (Candida albicans; [8]): 12.5 µg/mL (≈ 45.1 µM)
- MIC (Candida albicans; [9]): 25 µg/mL (≈ 90.1 µM)
- MIC (Candida albicans; [10]): 12.5 µg/mL (≈ 45.1 µM)
- MIC (Candida albicans; [11]): 12.5 µg/mL (≈ 45.1 µM)
- MIC (Candida albicans; [12]): 6 µg/mL (≈ 21.6 µM)
- MIC (Candida albicans; [13]): 6 µg/mL (≈ 21.6 µM)
- MIC (Candida albicans; [14]): 6 µg/mL (≈ 21.6 µM)
- MIC (Candida albicans; [15]): 6 µg/mL (≈ 21.6 µM)
- MIC (Candida albicans; [16]): 6 µg/mL (≈ 21.6 µM)
- MIC (Candida albicans; [17]): 12.5 µg/mL (≈ 45.1 µM)
- MIC (Candida albicans; [18]): 12.5 µg/mL (≈ 45.1 µM)
- MIC (Candida albicans; [19]): 12.5 µg/mL (≈ 45.1 µM)
- MIC (Candida albicans; [20]): 12.5 µg/mL (≈ 45.1 µM)
- MIC (Candida albicans; [21]): 12.5 µg/mL (≈ 45.1 µM)
- MIC (Candida albicans; [22]): 12.5 µg/mL (≈ 45.1 µM)
- MIC [1, 23]: 25 µg/mL (≈ 90.1 µM)
- MIC [1, 24]: 25 µg/mL (≈ 90.1 µM)
- MIC [1, 25]: 25 µg/mL (≈ 90.1 µM)
- MIC [1, 26]: 12.5 µg/mL (≈ 45.1 µM)
- MIC [1, 27]: 100 µg/mL (≈ 361 µM)
- MIC ([2]; Trichophyton schoenleinii): 6 µg/mL (≈ 21.6 µM)
- MIC (Trichophyton rubrum; [28]): 3 µg/mL (≈ 10.8 µM)
- MIC (Trichophyton rubrum; [29]): 25 µg/mL (≈ 90.1 µM)
- MIC (Trichophyton rubrum; [30]): 12.5 µg/mL (≈ 45.1 µM)
- MIC (Trichophyton tonsurans; Trichophyton tonsurans): 0.75 µg/mL (≈ 2.7 µM)
- MIC ([3]; Streptococcus): 25 µg/mL (≈ 90.1 µM)
- MIC (Trichophyton equinum; [31]): 25 µg/mL (≈ 90.1 µM)
- MIC (Trichophyton equinum; [32]): 6 µg/mL (≈ 21.6 µM)
- MIC (Trichophyton quickeaneum; Trichophyton): 25 µg/mL (≈ 90.1 µM)
- MIC (Trichophyton verrucosum; [33]): 3 µg/mL (≈ 10.8 µM)
- MIC (Trichophyton verrucosum; [34]): 3 µg/mL (≈ 10.8 µM)
- MIC (Pasteurella multocida; Pasteurella multocida): 6 µg/mL (≈ 21.6 µM)
- MIC (Trichophyton violoceum; Trichophyton): 12.5 µg/mL (≈ 45.1 µM)

- MIC (Candida albicans; Candida albicans A 7, read-out: MIC values): 6 µg/mL (≈ 21.6 µM)
- MIC (Candida albicans; Candida albicans A 3140, read-out: MIC values): 6 µg/mL (≈ 21.6 µM)
- MIC (Candida albicans; Candida albicans A 3141, read-out: MIC values): 12.5 µg/mL (≈ 45.1 µM)
- MIC (Candida albicans; Candida albicans A 3142, read-out: MIC values): 6 µg/mL (≈ 21.6 µM)
- MIC (Candida albicans; Candida albicans A 3143, read-out: MIC values): 6 µg/mL (≈ 21.6 µM)
- MIC (Candida albicans; Candida albicans A 3144, read-out: MIC values): 25 µg/mL (≈ 90.1 µM)
- MIC (Candida albicans; Candida albicans A 3145, read-out: MIC values): 12.5 µg/mL (≈ 45.1 µM)
- MIC (Candida albicans; Candida albicans A 3165, read-out: MIC values): 6 µg/mL (≈ 21.6 µM)
- MIC (Candida albicans; Candida albicans A 3166, read-out: MIC values): 6 µg/mL (≈ 21.6 µM)
- MIC (Candida albicans; Candida albicans A 3167, read-out: MIC values): 6 µg/mL (≈ 21.6 µM)
- MIC (Candida albicans; Candida albicans A 3168, read-out: MIC values): 6 µg/mL (≈ 21.6 µM)
- MIC (Candida albicans; Candida albicans A 3169, read-out: MIC values): 6 µg/mL (≈ 21.6 µM)
- MIC (Candida albicans; Candida albicans A 3171, read-out: MIC values): 6 µg/mL (≈ 21.6 µM)
- MIC (Candida albicans; Candida albicans A 3184, read-out: MIC values): 6 µg/mL (≈ 21.6 µM)
- MIC (Candida albicans; Candida albicans A 3190, read-out: MIC values): 12.5 µg/mL (≈ 45.1 µM)
- MIC (Candida albicans; Candida albicans A 3191, read-out: MIC values): 25 µg/mL (≈ 90.1 µM)
- MIC (Candida albicans; Candida albicans A 3192, read-out: MIC values): 6 µg/mL (≈ 21.6 µM)
- MIC (Candida albicans; Candida albicans A 3194, read-out: MIC values): 12.5 µg/mL (≈ 45.1 µM)
- MIC (Candida albicans; Candida albicans A 3196, read-out: MIC values): 25 µg/mL (≈ 90.1 µM)
- MIC ([1]; Trichophyton mentagrophytus 367-68, read-out: MIC values): 25 µg/mL (≈ 90.1 µM)
- MIC ([1]; Trichophyton mentagrophytus 421-67, read-out: MIC values): 25 µg/mL (≈ 90.1 µM)
- MIC ([1]; Trichophyton mentagrophytus A 3252, read-out: MIC values): 25 µg/mL (≈ 90.1 µM)
- MIC ([1]; Trichophyton mentagrophytus R 177, read-out: MIC values): 25 µg/mL (≈ 90.1 µM)
- MIC ([1]; Trichophyton mentagrophytus R 178, read-out: MIC values): 50 µg/mL (≈ 180 µM)
- MIC ([2]; Trichophyton schoenleinii 435-63): 6 µg/mL (≈ 21.6 µM)
- MIC (Trichophyton rubrum; Trichophyton rubrum 218-65, read-out: MIC values): 3 µg/mL (≈ 10.8 µM)
- MIC (Trichophyton rubrum; Trichophyton rubrum 494-62, read-out: MIC values): 25 µg/mL (≈ 90.1 µM)
- MIC (Trichophyton rubrum; Trichophyton rubrum A 810, read-out: MIC values): 12.5 µg/mL (≈ 45.1 µM)
- MIC (Trichophyton tonsurans; Trichophyton tonsurans 561-50): 0.4 µg/mL (≈ 1.44 µM)
- MIC (Trichophyton equinum; Trichophyton equinum 182-76, read-out: MIC values): 25 µg/mL (≈ 90.1 µM)
- MIC (Trichophyton equinum; Trichophyton equinum 441-51, read-out: MIC values): 3 µg/mL (≈ 10.8 µM)
- MIC (Trichophyton quickeaneum; Trichophyton quickeaneum A 2040): 25 µg/mL (≈ 90.1 µM)
- MIC (Trichophyton verrucosum; Trichophyton verrucosum 134-66, read-out: MIC values): 3 µg/mL (≈ 10.8 µM)
- MIC (Trichophyton verrucosum; Trichophyton verrucosum A 2922, read-out: MIC values): 1.5 µg/mL (≈ 5.41 µM)
- MIC (Pasteurella multocida; Pasteurella multocida A 723): 6 µg/mL (≈ 21.6 µM)
- MIC (Trichophyton violoceum; Trichophyton violoceum 442-62): 12.5 µg/mL (≈ 45.1 µM)
Structure (SMILES): [C-]#[N+]C(C1=CCOCC1)S(=O)(=O)c1ccc(C)cc1 (stereo not drawn) [Example 14b, α-(2,3-dihydro-6H-pyran-4-yl)-a-(4-toluenesulphonyl)-methylisocyanide]
- MIC ([3]; Streptococcus haemolyticus A 1088): 100 µg/mL (≈ 361 µM)

Structure (SMILES): [C-]#[N+]C(=C1CCSCC1)S(=O)(=O)c1ccc(C)cc1 [Example 16a, a-(thian-4-ylidene)-a-(4-toluenesulphonyl)-methylisocyanide]
- MIC (Candida albicans; [4]): 6 µg/mL (≈ 20.4 µM)
- MIC (Candida albicans; [5]): 6 µg/mL (≈ 20.4 µM)
- MIC (Candida albicans; [6]): 6 µg/mL (≈ 20.4 µM)
- MIC (Candida albicans; [7]): 6 µg/mL (≈ 20.4 µM)
- MIC (Candida albicans; [8]): 12.5 µg/mL (≈ 42.6 µM)
- MIC (Candida albicans; [9]): 12.5 µg/mL (≈ 42.6 µM)
- MIC (Candida albicans; [10]): 12.5 µg/mL (≈ 42.6 µM)
- MIC (Candida albicans; [11]): 6 µg/mL (≈ 20.4 µM)
- MIC (Candida albicans; [12]): 3 µg/mL (≈ 10.2 µM)
- MIC (Candida albicans; [13]): 3 µg/mL (≈ 10.2 µM)
- MIC (Candida albicans; [14]): 3 µg/mL (≈ 10.2 µM)
- MIC (Candida albicans; [15]): 12.5 µg/mL (≈ 42.6 µM)
- MIC (Candida albicans; [16]): 6 µg/mL (≈ 20.4 µM)
- MIC (Candida albicans; [17]): 12.5 µg/mL (≈ 42.6 µM)
- MIC (Candida albicans; [18]): 25 µg/mL (≈ 85.2 µM)
- MIC (Candida albicans; [19]): 25 µg/mL (≈ 85.2 µM)
- MIC (Candida albicans; [20]): 25 µg/mL (≈ 85.2 µM)
- MIC (Candida albicans; [21]): 25 µg/mL (≈ 85.2 µM)
- MIC (Candida albicans; [22]): 25 µg/mL (≈ 85.2 µM)
- MIC [1, 23]: 25 µg/mL (≈ 85.2 µM)
- MIC [1, 24]: 50 µg/mL (≈ 170 µM)
- MIC [1, 25]: 25 µg/mL (≈ 85.2 µM)
- MIC [1, 26]: 12.5 µg/mL (≈ 42.6 µM)
- MIC [1, 27]: 100 µg/mL (≈ 341 µM)
- MIC ([2]; Trichophyton schoenleinii): 6 µg/mL (≈ 20.4 µM)
- MIC (Trichophyton rubrum; [28]): 6 µg/mL (≈ 20.4 µM)
- MIC (Trichophyton rubrum; [29]): 25 µg/mL (≈ 85.2 µM)
- MIC (Trichophyton rubrum; [30]): 3 µg/mL (≈ 10.2 µM)
- MIC (Trichophyton tonsurans; Trichophyton tonsurans): 0.4 µg/mL (≈ 1.36 µM)
- MIC ([3]; Streptococcus): 25 µg/mL (≈ 85.2 µM)
- MIC (Trichophyton equinum; [31]): 25 µg/mL (≈ 85.2 µM)
- MIC (Trichophyton equinum; [32]): 3 µg/mL (≈ 10.2 µM)
- MIC (Trichophyton quickeaneum; Trichophyton): 12.5 µg/mL (≈ 42.6 µM)
- MIC (Trichophyton verrucosum; [33]): 3 µg/mL (≈ 10.2 µM)
- MIC (Trichophyton verrucosum; [34]): 1.5 µg/mL (≈ 5.11 µM)
- MIC (Pasteurella multocida; Pasteurella multocida): 6 µg/mL (≈ 20.4 µM)
- MIC (Trichophyton violoceum; Trichophyton): 6 µg/mL (≈ 20.4 µM)

— patent EP0007672A1, “Isocyanoalkenes, process and useful intermediates for their preparation, pharmaceutical and fungicidal preparations containing those isocyanoalkenes and the use of the fungicidal preparations in agriculture” (GIST-BROCADES N.V., priority 1978, dated 1980)
